{"source": "patent US20150307938A1", "about": "“METHOD TO IDENTIFY A NOVEL CLASS OF IMMUNOLOGIC ADJUVANTS” (Lancell, L.L.C., priority 2011, published 2015)", "system": "skin", "assay": "Affymetrix microarray of skin, DBP-4 hr and analogs vs. untreated; gene selection by log-2 fold change, Wilcoxon, Kendall tau (Tables 8, 9)", "type": "in vivo, mouse", "conditions": "for Kendall: Kendall tau, expression vs. outcome"}
{"smiles": "CCCCOC(=O)c1ccccc1C(=O)OCCCC", "note": "[DBP, dibutylphthalate]", "values": [{"measurement": "Wilcoxon", "setting": "gene #557 Il10ra NM_008348_at, DBP-4 hr vs. untreated", "value": "No"}, {"measurement": "Kendall", "setting": "gene #557 Il10ra NM_008348_at", "value": "Yes"}, {"measurement": "Wilcoxon", "setting": "gene #558 Il7 NM_008371_at, DBP-4 hr vs. untreated", "value": "No"}, {"measurement": "Kendall", "setting": "gene #558 Il7 NM_008371_at", "value": "Yes"}, {"measurement": "Wilcoxon", "setting": "gene #559 Kif3a NM_008443_at, DBP-4 hr vs. untreated", "value": "No"}, {"measurement": "Kendall", "setting": "gene #559 Kif3a NM_008443_at", "value": "Yes"}, {"measurement": "Wilcoxon", "setting": "gene #560 Lmo2 NM_008505_at, DBP-4 hr vs. untreated", "value": "No"}, {"measurement": "Kendall", "setting": "gene #560 Lmo2 NM_008505_at", "value": "Yes"}, {"measurement": "Wilcoxon", "setting": "gene #561 Mcl1 NM_008562_at, DBP-4 hr vs. untreated", "value": "No"}, {"measurement": "Kendall", "setting": "gene #561 Mcl1 NM_008562_at", "value": "Yes"}, {"measurement": "Wilcoxon", "setting": "gene #562 Meox2 NM_008584_at, DBP-4 hr vs. untreated", "value": "No"}, {"measurement": "Kendall", "setting": "gene #562 Meox2 NM_008584_at", "value": "Yes"}, {"measurement": "Wilcoxon", "setting": "gene #563 Mtf1 NM_008636_at, DBP-4 hr vs. untreated", "value": "No"}, {"measurement": "Kendall", "setting": "gene #563 Mtf1 NM_008636_at", "value": "Yes"}, {"measurement": "Wilcoxon", "setting": "gene #564 Mut NM_008650_at, DBP-4 hr vs. untreated", "value": "No"}, {"measurement": "Kendall", "setting": "gene #564 Mut NM_008650_at", "value": "Yes"}, {"measurement": "Wilcoxon", "setting": "gene #565 Ppp1r15a NM_008654_at, DBP-4 hr vs. untreated", "value": "No"}, {"measurement": "Kendall", "setting": "gene #565 Ppp1r15a NM_008654_at", "value": "Yes"}, {"measurement": "Wilcoxon", "setting": "gene #566 Ncf4 NM_008677_at, DBP-4 hr vs. untreated", "value": "No"}, {"measurement": "Kendall", "setting": "gene #566 Ncf4 NM_008677_at", "value": "Yes"}, {"measurement": "Wilcoxon", "setting": "gene #567 Nos3 NM_008713_at, DBP-4 hr vs. untreated", "value": "No"}, {"measurement": "Kendall", "setting": "gene #567 Nos3 NM_008713_at", "value": "Yes"}, {"measurement": "Wilcoxon", "setting": "gene #568 Pigf NM_008838_at, DBP-4 hr vs. untreated", "value": "No"}, {"measurement": "Kendall", "setting": "gene #568 Pigf NM_008838_at", "value": "Yes"}, {"measurement": "Wilcoxon", "setting": "gene #569 Map2k3 NM_008928_at, DBP-4 hr vs. untreated", "value": "No"}, {"measurement": "Kendall", "setting": "gene #569 Map2k3 NM_008928_at", "value": "Yes"}, {"measurement": "Wilcoxon", "setting": "gene #570 Rad50 NM_009012_at, DBP-4 hr vs. untreated", "value": "No"}, {"measurement": "Kendall", "setting": "gene #570 Rad50 NM_009012_at", "value": "Yes"}, {"measurement": "Wilcoxon", "setting": "gene #571 Ralgds NM_009058_at, DBP-4 hr vs. untreated", "value": "No"}, {"measurement": "Kendall", "setting": "gene #571 Ralgds NM_009058_at", "value": "Yes"}, {"measurement": "Wilcoxon", "setting": "gene #572 Hltf NM_009210_at, DBP-4 hr vs. untreated", "value": "No"}, {"measurement": "Kendall", "setting": "gene #572 Hltf NM_009210_at", "value": "Yes"}, {"measurement": "Wilcoxon", "setting": "gene #573 Serpina3n NM_009252_at, DBP-4 hr vs. untreated", "value": "No"}, {"measurement": "Kendall", "setting": "gene #573 Serpina3n NM_009252_at", "value": "Yes"}, {"measurement": "Wilcoxon", "setting": "gene #574 Tnfaip1 NM_009395_at, DBP-4 hr vs. untreated", "value": "No"}, {"measurement": "Kendall", "setting": "gene #574 Tnfaip1 NM_009395_at", "value": "Yes"}, {"measurement": "Wilcoxon", "setting": "gene #575 Tuba4a NM_009447_at, DBP-4 hr vs. untreated", "value": "No"}, {"measurement": "Kendall", "setting": "gene #575 Tuba4a NM_009447_at", "value": "Yes"}, {"measurement": "Wilcoxon", "setting": "gene #576 Zfp101 NM_009542_at, DBP-4 hr vs. untreated", "value": "No"}, {"measurement": "Kendall", "setting": "gene #576 Zfp101 NM_009542_at", "value": "Yes"}, {"measurement": "Wilcoxon", "setting": "gene #577 Parp2 NM_009632_at, DBP-4 hr vs. untreated", "value": "No"}, {"measurement": "Kendall", "setting": "gene #577 Parp2 NM_009632_at", "value": "Yes"}, {"measurement": "Wilcoxon", "setting": "gene #578 Aldh2 NM_009656_at, DBP-4 hr vs. untreated", "value": "No"}, {"measurement": "Kendall", "setting": "gene #578 Aldh2 NM_009656_at", "value": "Yes"}, {"measurement": "Wilcoxon", "setting": "gene #579 Cebpb NM_009883_at, DBP-4 hr vs. untreated", "value": "No"}, {"measurement": "Kendall", "setting": "gene #579 Cebpb NM_009883_at", "value": "Yes"}, {"measurement": "Wilcoxon", "setting": "gene #580 Bcar1 NM_009954_at, DBP-4 hr vs. untreated", "value": "No"}, {"measurement": "Kendall", "setting": "gene #580 Bcar1 NM_009954_at", "value": "Yes"}, {"measurement": "Wilcoxon", "setting": "gene #581 Eci1 NM_010023_at, DBP-4 hr vs. untreated", "value": "No"}, {"measurement": "Kendall", "setting": "gene #581 Eci1 NM_010023_at", "value": "Yes"}, {"measurement": "Wilcoxon", "setting": "gene #582 Ddt NM_010027_at, DBP-4 hr vs. untreated", "value": "No"}, {"measurement": "Kendall", "setting": "gene #582 Ddt NM_010027_at", "value": "Yes"}, {"measurement": "Wilcoxon", "setting": "gene #583 Egr2 NM_010118_at, DBP-4 hr vs. untreated", "value": "No"}, {"measurement": "Kendall", "setting": "gene #583 Egr2 NM_010118_at", "value": "Yes"}, {"measurement": "Wilcoxon", "setting": "gene #584 F2r NM_010169_at, DBP-4 hr vs. untreated", "value": "No"}, {"measurement": "Kendall", "setting": "gene #584 F2r NM_010169_at", "value": "Yes"}, {"measurement": "Wilcoxon: Abhd6", "setting": "gene Abhd6, NM_025341_at, DBP-4 hr vs. untreated", "value": "No"}, {"measurement": "Kendall: Abhd6", "setting": "gene Abhd6, NM_025341_at, gene expression vs. output", "value": "Yes"}, {"measurement": "Wilcoxon: Acad8", "setting": "gene Acad8, NM_025862_at, DBP-4 hr vs. untreated", "value": "No"}, {"measurement": "Kendall: Acad8", "setting": "gene Acad8, NM_025862_at, gene expression vs. output", "value": "Yes"}, {"measurement": "Wilcoxon: Ak2", "setting": "gene Ak2, NM_016895_at, DBP-4 hr vs. untreated", "value": "No"}, {"measurement": "Kendall: Ak2", "setting": "gene Ak2, NM_016895_at, gene expression vs. output", "value": "Yes"}, {"measurement": "Wilcoxon: Akr1e1", "setting": "gene Akr1e1, NM_018859_at, DBP-4 hr vs. untreated", "value": "No"}, {"measurement": "Kendall: Akr1e1", "setting": "gene Akr1e1, NM_018859_at, gene expression vs. output", "value": "Yes"}, {"measurement": "Wilcoxon: Avpr1a", "setting": "gene Avpr1a, NM_016847_at, DBP-4 hr vs. untreated", "value": "No"}, {"measurement": "Kendall: Avpr1a", "setting": "gene Avpr1a, NM_016847_at, gene expression vs. output", "value": "Yes"}, {"measurement": "Wilcoxon: B4galt1", "setting": "gene B4galt1, NM_022305_at, DBP-4 hr vs. untreated", "value": "No"}, {"measurement": "Kendall: B4galt1", "setting": "gene B4galt1, NM_022305_at, gene expression vs. output", "value": "Yes"}, {"measurement": "Wilcoxon: Bphl", "setting": "gene Bphl, NM_026512_at, DBP-4 hr vs. untreated", "value": "No"}, {"measurement": "Kendall: Bphl", "setting": "gene Bphl, NM_026512_at, gene expression vs. output", "value": "Yes"}, {"measurement": "Wilcoxon: Cdkl2", "setting": "gene Cdkl2, NM_016912_at, DBP-4 hr vs. untreated", "value": "No"}, {"measurement": "Kendall: Cdkl2", "setting": "gene Cdkl2, NM_016912_at, gene expression vs. output", "value": "Yes"}, {"measurement": "Wilcoxon: Cep70", "setting": "gene Cep70, NM_023873_at, DBP-4 hr vs. untreated", "value": "No"}, {"measurement": "Kendall: Cep70", "setting": "gene Cep70, NM_023873_at, gene expression vs. output", "value": "Yes"}, {"measurement": "Wilcoxon: Cirh1a", "setting": "gene Cirh1a, NM_011574_at, DBP-4 hr vs. untreated", "value": "No"}, {"measurement": "Kendall: Cirh1a", "setting": "gene Cirh1a, NM_011574_at, gene expression vs. output", "value": "Yes"}, {"measurement": "Wilcoxon: Clec14a", "setting": "gene Clec14a, NM_025809_at, DBP-4 hr vs. untreated", "value": "No"}, {"measurement": "Kendall: Clec14a", "setting": "gene Clec14a, NM_025809_at, gene expression vs. output", "value": "Yes"}, {"measurement": "Wilcoxon: Commd4", "setting": "gene Commd4, NM_025417_at, DBP-4 hr vs. untreated", "value": "No"}, {"measurement": "Kendall: Commd4", "setting": "gene Commd4, NM_025417_at, gene expression vs. output", "value": "Yes"}, {"measurement": "Wilcoxon: Cr1l", "setting": "gene Cr1l, NM_013499_at, DBP-4 hr vs. untreated", "value": "No"}, {"measurement": "Kendall: Cr1l", "setting": "gene Cr1l, NM_013499_at, gene expression vs. output", "value": "Yes"}, {"measurement": "Wilcoxon: Cyth1", "setting": "gene Cyth1, NM_011180_at, DBP-4 hr vs. untreated", "value": "No"}, {"measurement": "Kendall: Cyth1", "setting": "gene Cyth1, NM_011180_at, gene expression vs. output", "value": "Yes"}, {"measurement": "Wilcoxon: D16Ertd472e", "setting": "gene D16Ertd472e, NM_025967_at, DBP-4 hr vs. untreated", "value": "No"}, {"measurement": "Kendall: D16Ertd472e", "setting": "gene D16Ertd472e, NM_025967_at, gene expression vs. output", "value": "Yes"}, {"measurement": "Wilcoxon: Dcxr", "setting": "gene Dcxr, NM_026428_at, DBP-4 hr vs. untreated", "value": "No"}, {"measurement": "Kendall: Dcxr", "setting": "gene Dcxr, NM_026428_at, gene expression vs. output", "value": "Yes"}, {"measurement": "Wilcoxon: Dda1", "setting": "gene Dda1, NM_025600_at, DBP-4 hr vs. untreated", "value": "No"}]}
